The record followed here is patent publication US20080207708A1, “Oxazole and Thiazole Compounds and Their Use in the Treatment of Pge2 Mediated Disorders” (GLAXO GROUP LIMITED, priority 2005, published 2008).

Molecules are shown by their SMILES. Structures can show the parent of a compound that is named as a salt.

Assay [1] has as its target T1, EP1 receptors (Homo sapiens, UniProt P34995).
T1 sequence (P34995 1-402): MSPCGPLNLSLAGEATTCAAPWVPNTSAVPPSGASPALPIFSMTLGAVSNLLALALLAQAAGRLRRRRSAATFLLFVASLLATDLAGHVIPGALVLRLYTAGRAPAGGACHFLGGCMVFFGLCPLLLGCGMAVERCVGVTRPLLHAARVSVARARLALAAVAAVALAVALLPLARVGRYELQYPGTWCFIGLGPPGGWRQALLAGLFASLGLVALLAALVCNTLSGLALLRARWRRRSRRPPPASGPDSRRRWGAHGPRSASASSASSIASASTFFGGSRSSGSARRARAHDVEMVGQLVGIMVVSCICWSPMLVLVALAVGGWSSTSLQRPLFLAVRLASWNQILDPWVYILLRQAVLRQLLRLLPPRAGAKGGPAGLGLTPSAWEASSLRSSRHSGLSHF
Kind of assay: human EP1 calcium mobilisation assay (CHO-K1 cells, FLIPR, PGE2). More on the design: expressed in transfected cells; host or cells: CHO-K1 cells, pCIN vector. Particulars: free bases or sodium salts; averages of a number of experiments; read-out: functional pKi value, human EP1 calcium mobilisation assay (converted). The format is cell-based. As for the experimental part:
Briefly, the antagonist properties of compounds are assessed by their ability to inhibit the mobilisation of intracellular calcium ([Ca^2+]i) in response to activation of EP1 or EP3 receptors by the natural agonist hormone prostaglandin E2 (PGE2). Increasing concentrations of antagonist reduce the amount of calcium that a given concentration of PGE2 can mobilise. The net effect is to displace the PGE2 concentration-effect curve to higher concentrations of PGE2. The amount of calcium produced is assessed using a calcium-sensitive fluorescent dye such as Fluo-4, AM and a suitable instrument such as a Fluorimetric Imaging Plate Reader (FLIPR). Increasing amounts of [Ca^2+]i produced by receptor activation increase the amount of fluorescence produced by the dye and give rise to an increasing signal. The signal may be detected using the FLIPR instrument and the data generated may be analysed with suitable curve-fitting software.
The human EP1 or EP3 calcium mobilisation assay (hereafter referred to as ‘the calcium assay’) utilises Chinese hamster ovary-K1 (CHO-K1) cells into which a stable (pCIN; BioTechniques 20 (1996): 102-110) vector containing either EP1 or EP3 cDNA has previously been transfected. Cells are cultured in suitable flasks containing culture medium such as DMEM:F-12 supplemented with 10% v/v foetal calf serum, 2 mM L-glutamine, 0.25 mg/ml geneticin, 100 μM flurbiprofen and 10 µg/ml puromycin. For assay, cells are harvested using a proprietary reagent that dislodges cells such as Versene. Cells are re-suspended in a suitable quantity of fresh culture media for introduction into a 384-well plate. Following incubation for 24 hours at 37° C. the culture media is replaced with a medium containing Fluo-4 and the detergent pluronic acid, and a further incubation takes place. Concentrations of compounds are then added to the plate in order to construct concentration-effect curves. This may be performed on the FLIPR in order to assess the agonist properties of the compounds. Concentrations of PGE2 are then added to the plate in order to assess the antagonist properties of the compounds. The data so generated may be analysed by means of a computerised curve-fitting routine. The concentration of compound that elicits a half-maximal inhibition of the calcium mobilisation induced by PGE2 (pIC50) may then be estimated.
Background: Calcium flux is commonly read through the fluorescence of an indicator in the cells.

Assay [2] concerns the target T1, EP1 receptors. The experiment in a line: Binding assay for the human prostanoid EP1 receptor (competition with [3H]-PGE2). More on the design: expressed in transfected cells; host or cells: CHO-K1 cells, membrane fraction. Particulars: [3H]-PGE2 competition; averages of a number of experiments; read-out: pIC50 value, binding assay for the human prostanoid EP1 receptor (converted). In a few lines:
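Membranes from CHO-K1 cells stably expressing human EP1 incubated with compounds and [3H]-PGE2 (3 nM final) for 30 min at 30° C in MES buffer with EDTA and MgCl2, pH 6. Bound radioactivity measured after filtration; IC50 from nonlinear fit of specific binding inhibition.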

In the case of `O=C(Cc1ccccc1)Nc1csc(Cc2cc(Cl)ccc2OCc2ccccc2)n1` [Example 130, N-[2-({5-Chloro-2-[(phenylmethyl)oxy]phenyl}methyl)-1,3-thiazol-4-yl]-2-phenylacetamide], the Ki in assay [1] was < 1000 nM. Moreover, in assay [2], the IC50 is ≤ 1000 nM.

In the case of `Clc1ccc(OCc2ccccc2)c(Cc2nc(-c3nc4ccccc4[nH]3)cs2)c1` [Example 131, 2-[2-({5-Chloro-2-[(phenylmethyl)oxy]phenyl}methyl)-1,3-thiazol-4-yl]-1H-benzimidazole], the Ki in assay [1] was < 1000 nM. Further, the IC50 in assay [2] is ≤ 1000 nM.

As to `CC(C)COc1ccc(Cl)cc1Cc1nc(-c2nc3ncccc3[nH]2)cs1` [Example 132, 2-[2-({5-Chloro-2-[(2-methyl-propyl)oxy]-phenyl}methyl)-1,3-thiazol-4-yl]-1H-imidazo[4,5-b]pyridine], the Ki in assay [1] is < 1000 nM. In addition, the IC50 in assay [2] is ≤ 31.6 nM.

In the case of `Clc1ccc(OCc2ccccc2)c(Cc2nc(-c3nc4ncccc4[nH]3)cs2)c1` [Example 133, 2-[2-({5-Chloro-2-[(phenylmethyl)oxy]phenyl}methyl)-1,3-thiazol-4-yl]-1H-imidazo[4,5-b]pyridine], the Ki in assay [1] was < 1000 nM. In addition, the IC50 in assay [2] was ≤ 1000 nM.

As to `Clc1ccc(OCc2ccccc2)c(Cc2nc(-c3nc4ncc(Br)cc4[nH]3)cs2)c1` [Example 134, 6-Bromo-2-[2-({5-chloro-2-[(phenylmethyl)oxy]phenyl}methyl)-1,3-thiazol-4-yl]-1H-imidazo[4,5-b]pyridine], the Ki in assay [1] is < 1000 nM. For the same compound, the IC50 in assay [2] is ≤ 1000 nM.

For `CC(C)COc1ccc(Cl)cc1Cc1nc(-c2nc3cnccc3[nH]2)cs1` [Example 135, 2-[2-({5-Chloro-2-[(2-methyl-propyl)oxy]-phenyl}methyl)-1,3-thiazol-4-yl]-1H-imidazo[4,5-c]pyridinehydrochloride], the Ki in assay [1] was ≤ 31.6 nM. Moreover, the IC50 in assay [2] is ≤ 31.6 nM.

In the case of `CC(C)COc1ccc(Cl)cc1Cc1nc(-c2nc3nccnc3[nH]2)cs1` [Example 136, 2-[2-({5-Chloro-2-[(2-methyl-propyl)oxy]-phenyl}methyl)-1,3-thiazol-4-yl]-1H-imidazo[4,5-b]pyrazinehydrochloride], the Ki in assay [1] was ≤ 31.6 nM. The IC50 in assay [2] was ≤ 31.6 nM.

Regarding `Clc1ccc(OCc2ccccc2)c(Cc2nc(-c3nc4ccc(N5CCCC5)nc4[nH]3)cs2)c1` [Example 137, 2-[2-({5-Chloro-2-[(phenylmethyl)oxy]phenyl}methyl)-1,3-thiazol-4-yl]-5-(1-pyrrolidinyl)-1H-imidazo[4,5-b]pyridinehydrochloride], the Ki in assay [1] was < 1000 nM. Also, the IC50 in assay [2] is ≤ 1000 nM.

Consider `O=C(O)c1cccc2nc(-c3csc(Cc4cc(Cl)ccc4OCc4ccccc4)n3)[nH]c12` [Example 139, 2-[2-({5-Chloro-2-[(phenylmethyl)oxy]phenyl}methyl)-1,3-thiazol-4-yl]-1H-benzimidazole-4-carboxylic acid], for which, in assay [1], the Ki was < 1000 nM. Besides, in assay [2], the IC50 was ≤ 1000 nM.

As for `CC(C)COc1ccc(Cl)cc1Cc1nc(-c2nc3ccc(Cl)nc3[nH]2)cs1` [Example 140, 5-Chloro-2-[2-({5-chloro-2-[(2-methylpropyl)oxy]phenyl}methyl)-1,3-thiazol-4-yl]-1H-imidazo[4,5-b]pyridinehydrochloride], the Ki in assay [1] was < 1000 nM. In addition, the IC50 in assay [2] is ≤ 31.6 nM.

Take `CC(C)COc1ccc(Cl)cc1C(F)(F)c1nc(-c2nc3ccccc3[nH]2)cs1` [Example 141, 2-{2-[{5-chloro-2-[(2-methylpropyl)oxy]phenyl}(difluoro)methyl]-1,3-thiazol-4-yl}-1H-benzimidazole hydrochloride]: the Ki in assay [1] is > 1000 nM. Also, the IC50 in assay [2] is ≤ 1000 nM.

Turning to `CC(C)COc1ccc(Cl)cc1Cc1nc(-c2nc3ccc(N4CCN(C)CC4)cc3[nH]2)cs1` [Example 142, 2-[2-({5-Chloro-2-[(2-methylpropyl)oxy]phenyl}methyl)-1,3-thiazol-4-yl]-5-(4-methyl-1-piperazinyl)-1H-benzimidazole hydrochloride], the Ki in assay [1] was < 1000 nM. The IC50 in assay [2] is ≤ 31.6 nM.

With `OCc1cccc2nc(-c3csc(Cc4cc(Cl)ccc4OCc4ccccc4)n3)[nH]c12` [Example 143, {2-[2-({5-Chloro-2-[(phenylmethyl)oxy]phenyl}methyl)-1,3-thiazol-4-yl]-1H-benzimidazol-4-yl}methanol hydrochloride], in assay [1], the Ki is > 1000 nM. Besides, in assay [2], the IC50 is ≤ 1000 nM.

In the case of `CC(C)COc1ccc(Cl)cc1Cc1nc(-c2nc3ccc(N4CCOCC4)nc3[nH]2)cs1` [Example 144, 2-[2-({5-Chloro-2-[(2-methylpropyl)oxy]phenyl}methyl)-1,3-thiazol-4-yl]-5-(4-morpholinyl)-1H-imidazo[4,5-b]pyridine], in assay [1], the Ki is ≤ 31.6 nM. Also, the IC50 in assay [2] is ≤ 1000 nM.

Turning to `CC(C)COc1ccc(Cl)cc1Cc1nc(-c2nc3ccc(N4CCCC4)nc3[nH]2)cs1` [Example 145, 2-[2-({5-Chloro-2-[(2-methylpropyl)oxy]phenyl}methyl)-1,3-thiazol-4-yl]-5-(1-pyrrolidinyl)-1H-imidazo[4,5-b]pyridinehydrochloride], the Ki in assay [1] was < 1000 nM. The IC50 in assay [2] is ≤ 1000 nM.

On to `CC(C)COc1ccc(Cl)cc1Cc1nc(-c2nc3ccc(N4CCN(C)CC4)nc3[nH]2)cs1` [Example 146, 2-[2-({5-chloro-2-[(2-methylpropyl)oxy]phenyl}methyl)-1,3-thiazol-4-yl]-5-(4-methyl-1-piperazinyl)-1H-imidazo[4,5-b]pyridinehydrochloride], for which the Ki in assay [1] is < 1000 nM. Further, the IC50 in assay [2] was ≤ 31.6 nM.

For `CC(C)COc1ccc(Cl)cc1Cc1nc(-c2nc3ccc(N4CCCCC4)nc3[nH]2)cs1` [Example 147], the Ki in assay [1] was < 1000 nM. Further, the IC50 in assay [2] was ≤ 1000 nM.

With `CN1CCN(c2ccc3nc(-c4csc(Cc5cc(Cl)ccc5OCc5ccccc5)n4)[nH]c3c2)CC1` [Example 148, 2-[2-({5-Chloro-2-[(phenylmethyl)oxy]phenyl}methyl)-1,3-thiazol-4-yl]-5-(4-methyl-1-piperazinyl)-1H-benzimidazole hydrochloride], the Ki in assay [1] is < 1000 nM. For the same compound, the IC50 in assay [2] is ≤ 31.6 nM.

Take `Clc1ccc(OCc2ccccc2)c(Cc2nc(-c3nc4ccc(N5CCOCC5)cc4[nH]3)cs2)c1` [Example 149, 2-[2-({5-Chloro-2-[(phenylmethyl)oxy]phenyl}methyl)-1,3-thiazol-4-yl]-5-(4-morpholinyl)-1H-benzimidazole hydrochloride]: in assay [1], the Ki was < 1000 nM. The IC50 in assay [2] was ≤ 31.6 nM.

Regarding `Clc1ccc(OCc2ccccc2)c(Cc2nc(-c3nc4cc5cn[nH]c5cc4[nH]3)cs2)c1` [Example 150, 6-[2-({5-Chloro-2-[(phenylmethyl)oxy]phenyl}methyl)-1,3-thiazol-4-yl]-1,5-dihydroimidazo[4,5-f]indazolehydrochloride], in assay [1], the Ki is < 1000 nM. Also, the IC50 in assay [2] is ≤ 31.6 nM.

As for `CN1CCN(c2ccc3[nH]c(-c4csc(Cc5cc(Cl)ccc5OCc5ccccc5)n4)nc3n2)CC1` [Example 151, 2-[2-({5-Chloro-2-[(phenylmethyl)oxy]phenyl}methyl)-1,3-thiazol-4-yl]-5-(4-methyl-1-piperazinyl)-1H-imidazo[4,5-b]pyridine hydrochloride], the Ki in assay [1] is < 1000 nM. The IC50 in assay [2] was ≤ 31.6 nM.
